Measured values as given in US9873690B2, “3-indol substituted derivatives, pharmaceutical compositions and methods for use” (Pfizer Inc., priority 2015, dated 2018).

target: T1, hTDO2 (Homo sapiens, UniProt P48775); test: Cellular assay for TDO2 activity determination in A172 cells; format: cell-based; conditions: human glioblastoma A172 cells naturally expressing hTDO2; overnight incubation; kynurenine by absorbance at 480 nm
T1 construct: endogenous in cells; host or cells: A172 human brain glioblastoma cells (ATCC CRL-1620)
T1 sequence (P48775 whole entry): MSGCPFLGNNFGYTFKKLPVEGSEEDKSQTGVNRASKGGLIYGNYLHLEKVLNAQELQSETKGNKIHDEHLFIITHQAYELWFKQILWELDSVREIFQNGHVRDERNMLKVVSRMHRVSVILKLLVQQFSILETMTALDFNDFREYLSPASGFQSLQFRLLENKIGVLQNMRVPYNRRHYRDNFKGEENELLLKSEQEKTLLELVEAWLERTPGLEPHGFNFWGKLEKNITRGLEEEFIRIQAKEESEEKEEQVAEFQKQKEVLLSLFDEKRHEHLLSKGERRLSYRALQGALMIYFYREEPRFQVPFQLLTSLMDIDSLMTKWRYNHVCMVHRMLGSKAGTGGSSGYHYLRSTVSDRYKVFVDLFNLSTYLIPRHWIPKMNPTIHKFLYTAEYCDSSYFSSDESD
Protocol: The compounds of formula I inhibit the activity of human TDO2 in cells that constitutively express TDO2, such as A172 cells. A172 is a cell line derived from human brain glioblastoma cells. The cells are available from the American Type Culture Collection (ATCC®) as CRL-1620™.
The assay (adapted from Pilotte L et al., Proc Natl Acad Sci USA, 2012, 109(7), 2497-502) was performed in 96-well flat bottom plates seeded with human glioblastoma A172 cells, naturally expressing hTDO2 (prepared as described in Tilman et al., Mol Cancer, 2007, 17(6), 80), at a concentration of 1.25×10^4 cells/well in a final volume of 200 μL. To determine TDO, the cells were incubated overnight at 37° C. at 5% CO2 in IMDM (Invitrogen) supplemented with 2% FBS and 2% penicillin/streptomycin in the presence of the compounds of the present invention, at different concentrations.
The plates were then centrifuged 5 min at 1000 rpm, and 100 μL of the supernatant were collected in a conical plate, 30 μL of TCA 30% were added and a further centrifuged at 3000×g for 10 minutes. 100 μL of the supernatant were collected in a flat bottomed plate and 100 μL of 2% (w/v) 4-(dimethylamino)-benzaldehyde in acetic acid and incubated for 5 min at room temperature. Kynurenine concentrations were determined by measuring the absorbance at 480 nm. A standard curve was made with pure kynurenine. The TDO activity was measured as described above using ten serial concentrations of the compounds of the present invention. Data were fitted using the Prism™ software (GraphPad Software, Inc.) using standard parameters.
The biological activity of representative compounds in human brain glioblastoma cells as determined in the above-referenced assay is summarized in the following table: […]

Row | SMILES | IC50
1 | CC1c2cc(-c3c[nH]c4cc(F)ccc34)ccc2S(=O)(=O)N1C[C@@H](O)CO (single isomer, unassigned; (+)) [Example 94] | 0.039 µM
2 | CC1c2cc(-c3c[nH]c4cc(F)ccc34)ccc2S(=O)(=O)N1C[C@H](O)CO (single isomer, unassigned; (+)) [Example 96] | 0.03 µM
3 | CNC(=O)C(O)CN1C(C)c2cc(-c3c[nH]c4cc(F)ccc34)ccc2S1(=O)=O (single isomer, unassigned; (+)) [Example 97, (+)-3-(5-(6-fluoro-1H-indol-3-yl)-3-methyl-1,1-dioxidobenzo[d]isothiazol-2(3H)-yl)-2-hydroxy-N-methylpropanamide] | 0.033 µM
4 | CNC(=O)C(O)CN1C(C)c2cc(-c3c[nH]c4cc(F)ccc34)ccc2S1(=O)=O (single isomer, unassigned; (+)) [Example 99, (+)-3-(5-(6-fluoro-1H-indol-3-yl)-3-methyl-1,1-dioxidobenzo[d]isothiazol-2(3H)-yl)-2-hydroxy-N-methylpropanamide] | 0.18 µM
5 | CNC(=O)C(N)CN1C(C)c2cc(-c3c[nH]c4cc(F)ccc34)ccc2S1(=O)=O (single isomer, unassigned; (+)) [Example 102, (+)-2-amino-3-(5-(6-fluoro-1H-indol-3-yl)-3-methyl-1,1-dioxidobenzo[d]isothiazol-2(3H)-yl)-N-methylpropanamide] | 0.114 µM
6 | CNC(=O)C(N)CN1C(C)c2cc(-c3c[nH]c4cc(F)ccc34)ccc2S1(=O)=O (single isomer, unassigned; (+)) [Example 104, (+) 2-amino-3-(5-(6-fluoro-1H-indol-3-yl)-3-methyl-1,1-dioxidobenzo[d]isothiazol-2(3H)-yl)-N-methylpropanamide] | 0.12 µM
7 | CNC(=O)C(CN1C(C)c2cc(-c3c[nH]c4cc(F)ccc34)ccc2S1(=O)=O)OC (single isomer, unassigned; (+)) [Example 105, (+)-3-(5-(6-fluoro-1H-indol-3-yl)-3-methyl-1,1-dioxidobenzo[d]isothiazol-2(3H)-yl)-2-methoxy-N-methylpropanamide] | 0.188 µM
8 | CNC(=O)C(CN1C(C)c2cc(-c3c[nH]c4cc(F)ccc34)ccc2S1(=O)=O)OC (single isomer, unassigned; (+)) [Example 107, (+)-3-(5-(6-fluoro-1H-indol-3-yl)-3-methyl-1,1-dioxidobenzo[d]isothiazol-2(3H)-yl)-2-methoxy-N-methylpropanamide] | 0.499 µM
9 | CCOC(=O)NCCN1C(C)c2cc(-c3c[nH]c4cc(F)ccc34)ccc2S1(=O)=O (single isomer, unassigned; (+)) [Example 110, (+)-ethyl (2-(5-(6-fluoro-1H-indol-3-yl)-3-methyl-1,1-dioxidobenzo[d]isothiazol-2(3H)-yl)ethyl)carbamate] | 0.157 µM
10 | CNC(=O)CN1C(C)c2cc(-c3c[nH]c4cc(F)ccc34)ccc2S1(=O)=O (single isomer, unassigned; (+)) [Example 112, (+)-2-(5-(6-fluoro-1H-indol-3-yl)-3-methyl-1,1-dioxidobenzo[d]isothiazol-2(3H)-yl)-Nmethylacetamide] | 0.142 µM
11 | CC1c2cc(-c3c[nH]c4cc(F)ccc34)ccc2S(=O)(=O)N1CC(=O)N(C)C (single isomer, unassigned; (+)) [Example 114, (+) 2-(5-(6-fluoro-1H-indol-3-yl)-3-methyl-1,1-dioxidobenzo[d]isothiazol-2(3H)-yl)-N,N-dimethylacetamide] | 0.239 µM
12 | CC1c2cc(-c3c[nH]c4cc(F)ccc34)ccc2S(=O)(=O)N1CC(N)=O (single isomer, unassigned; (+)) [Example 115] | 0.088 µM
13 | CC1c2cc(-c3c[nH]c4cc(F)ccc34)ccc2S(=O)(=O)N1CCN1CCOCC1 (single isomer, unassigned; (+)) [Example 118, (+)-5-(6-fluoro-1H-indol-3-yl)-3-methyl-2-(2-morpholinoethyl)-2,3-dihydrobenzo[d]isothiazole 1,1-dioxide] | 0.191 µM
14 | CC1c2cc(-c3c[nH]c4cc(F)ccc34)ccc2S(=O)(=O)N1C1CCNC(=O)C1 (single isomer, unassigned; (+)) [Example 120] | 0.091 µM
15 | CC1c2cc(-c3c[nH]c4cc(F)ccc34)ccc2S(=O)(=O)N1C1CCNC(=O)C1 (single isomer, unassigned; (+)) [Example 121, (+)-4-(-5-(6-fluoro-1H-indol-3-yl)-3-methyl-1,1-dioxidobenzo[d]isothiazol-2(3H)-yl)piperidin-2-one] | 0.348 µM
16 | CC1c2cc(-c3c[nH]c4cc(F)ccc34)ccc2S(=O)(=O)N1C1CNC(=O)C1 (single isomer, unassigned; (+)) [Example 123, (+)4-(5-(6-fluoro-1H-indol-3-yl)-3-methyl-1,1-dioxidobenzo[d]isothiazol-2(3H)-yl)pyrrolidin-2-one] | 0.501 µM
17 | CC1c2cc(-c3c[nH]c4cc(F)ccc34)ccc2S(=O)(=O)N1C1CNC(=O)C1 (single isomer, unassigned; (+)) [Example 126, (+)-4-(5-(6-fluoro-1H-indol-3-yl)-3-methyl-1,1-dioxidobenzo[d]isothiazol-2(3H)-yl)pyrrolidin-2-one] | 0.077 µM
18 | CNC(=O)CN1C(CO)c2cc(-c3c[nH]c4cc(F)ccc34)ccc2S1(=O)=O (single isomer, unassigned; (+)) [Example 128, (+)-2-(5-(6-fluoro-1H-indol-3-yl)-3-(hydroxymethyl)-1,1-dioxidobenzo[d]isothiazol-2(3H)-yl)-N-methylacetamide] | 0.079 µM
19 | Cn1cnc(CN2C(CO)c3cc(-c4c[nH]c5cc(F)ccc45)ccc3S2(=O)=O)n1 (single isomer, unassigned; (+)) [Example 130, (+)-5-(6-fluoro-1H-indol-3-yl)-3-(hydroxymethyl)-2-((1-methyl-1H-1,2,4-triazol-3-yl)methyl)-2,3-dihydrobenzo[d]isothiazole 1,1-dioxide] | 0.112 µM
20 | O=S1(=O)c2ccc(-c3c[nH]c4cc(F)ccc34)cc2C(CO)N1CCO (single isomer, unassigned; (+)) [Example 131, (+)-5-(6-fluoro-1H-indol-3-yl)-2-(2-hydroxyethyl)-3-(hydroxymethyl)-2,3-dihydrobenzo[d]isothiazole 1,1-dioxide] | 0.182 µM
21 | CC1c2cc(-c3c[nH]c4cc(F)ccc34)ccc2S(=O)(=O)N1CCc1n[nH]c(=O)o1 (single isomer, unassigned; (+)) [Example 134, (+)-5-(2-(5-(6-fluoro-1H-indol-3-yl)-3-methyl-1,1-dioxidobenzo[d]isothiazol-2 (3H)-yl)ethyl)-1,3,4-oxadiazol-2(3H)-one] | 0.053 µM
22 | CNCC1NS(=O)(=O)c2ccc(-c3c[nH]c4cc(F)ccc34)cc21 (single isomer, unassigned; (+)) [Example 138, (+)-5-(6-fluoro-1H-indol-3-yl)-3-((methylamino)methyl)-2,3-dihydrobenzo[d]isothiazole 1,1-dioxide] | 0.234 µM
23 | CS(=O)(=O)NCC1NS(=O)(=O)c2ccc(-c3c[nH]c4cc(F)ccc34)cc21 (single isomer, unassigned; (+)) [Example 140, (+)-N-((5-(6-fluoro-1H-indol-3-yl)-1,1-dioxido-2,3-dihydrobenzo[d]isothiazol-3-yl)methyl)methanesulfonamide] | 0.285 µM
24 | O=S1(=O)c2ccc(-c3c[nH]c4cc(F)ccc34)cc2C(CO)N1CC(O)CO (single isomer, unassigned; (+)) [Example 141, (+)-2-(2,3-dihydroxypropyl)-5-(6-fluoro-1H-indol-3-yl)-3-(hydroxymethyl)-2,3-dihydrobenzo[d]isothiazole 1,1-dioxide] | 0.83 µM
25 | O=S1(=O)c2ccc(-c3c[nH]c4cc(F)ccc34)cc2C(CO)N1CC(O)CO (single isomer, unassigned; (+)) [Example 144, (+)-2-(2,3-dihydroxypropyl)-5-(6-fluoro-1H-indol-3-yl)-3-(hydroxymethyl)-2,3-dihydrobenzo[d]isothiazole 1,1-dioxide] | 0.19 µM
26 | CNC(=O)C(C)N1C(C)c2cc(-c3c[nH]c4cc(F)ccc34)ccc2S1(=O)=O (single isomer, unassigned; (+)) [Example 146, (+)-2-(5-(6-fluoro-1H-indol-3-yl)-3-methyl-1,1-dioxidobenzo[d]isothiazol-2(3H)-yl)-N-methylpropanamide] | 0.054 µM
27 | CCC1NS(=O)(=O)c2ccc(-c3c[nH]c4cc(F)ccc34)cc21 (single isomer, unassigned; (-)) [Example 4, (−)-3-ethyl-5-(6-fluoro-1H-indol-3-yl)-2,3-dihydrobenzo[d]isothiazole 1,1-dioxide] | 0.272 µM
28 | CCCC1NS(=O)(=O)c2ccc(-c3c[nH]c4cc(F)ccc34)cc21 (single isomer, unassigned; (-)) [Example 7, (−)-5-(6-fluoro-1H-indol-3-yl)-3-propyl-2,3-dihydrobenzo[d]isothiazole 1,1-dioxide] | 1.45 µM
